# Data from the supplement of paper PMC8967900.
# Test system: KASUMI-10
# Experiment: selective drug sensitivity score (sDSS, relative to normal bone marrow) (sDSS (score)); higher = more potent and effective on the cell line relative to normal bone marrow cells
# Conditions: 72 h
# 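Note: ALL cell lines in 384-well plates, five doses spanning 10,000-fold, each plate scaled between vehicle and 100 µmol/L benzalkonium chloride controls, sDSS an adapted area-under-curve metric.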
row,Structure (SMILES),selective drug sensitivity score
1,O=c1sn(-c2cccc3ccccc23)c(=O)n1Cc1ccccc1 [Tideglusib] (top concentration 3000 nM),0.3
2,COc1cc2nccc(Oc3ccc(NC(=O)Nc4cc(C)on4)c(Cl)c3)c2cc1OC [Tivozanib] (top concentration 10000 nM),2.96
3,Cc1cc(Nc2cc(N3CCN(C)CC3)nc(Sc3ccc(NC(=O)C4CC4)cc3)n2)n[nH]1 [Tozasertib] (top concentration 10000 nM),15.6
4,CC1=C(/C=C/C(C)=C/C=C/C(C)=C/C(=O)O)C(C)(C)CCC1 [Tretinoin] (top concentration 10000 nM),-1.8
5,COC(=O)c1ccc2c(c1)[nH]c1ncnc(NCCCN3CCCCC3)c12 [UM729] (top concentration 10000 nM),2.74
6,COc1cc2c(NC3CCN(C(C)C)CC3)nc(N3CCC(F)(F)CC3)nc2cc1OCCCN1CCCC1 [UNC0642] (top concentration 10000 nM),-1.64
7,O=C(c1ccc(C(=O)N2CCC(N3CCCC3)CC2)c(Nc2ccccc2)c1)N1CCC(N2CCCC2)CC1 [UNC1215] (top concentration 10000 nM),0
8,CCCC(CCC)C(=O)O [Valproic_acid] (top concentration 1000000 nM),0
9,Clc1ccc(Nc2nnc(Cc3ccncc3)c3ccccc23)cc1 [Vatalanib] (top concentration 10000 nM),0
10,CCCS(=O)(=O)Nc1ccc(F)c(C(=O)c2c[nH]c3ncc(-c4ccc(Cl)cc4)cc23)c1F [Vemurafenib] (top concentration 10000 nM),-0.84

# Test system: KOPN-8
# Experiment: as above
# Conditions: 72 h
row,Structure (SMILES),selective drug sensitivity score
1,NCCNc1ccc(NCCN)c2c1C(=O)c1ccncc1C2=O [Pixantrone] (top concentration 10000 nM),-0.56
2,c1cc(CN2CCCNCCNCCCNCC2)ccc1CN1CCCNCCNCCCNCC1 [Plerixafor] (top concentration 10000 nM),0
3,O=C(c1ccc(OCCN2CCCCC2)cc1)c1c(-c2ccc(O)cc2)sc2cc(O)ccc12 [Raloxifene] (top concentration 10000 nM),0.52
4,CN(C)C(=O)c1cc2cnc(Nc3ccc(N4CCNCC4)cn3)nc2n1C1CCCC1 [Ribociclib] (top concentration 10000 nM),1.68
5,CN1CCN(CCOc2cc(OC3CCOCC3)c3c(Nc4c(Cl)ccc5c4OCO5)ncnc3c2)CC1 [Saracatinib] (top concentration 10000 nM),2.38
6,C=CC(=O)Nc1cccc(Nc2nc(Nc3ccc(OCCOC)cc3)ncc2F)c1 [Spebrutinib] (top concentration 1000 nM),-0.16
7,C[C@@H]1CN(Cc2ccc(F)cc2)[C@@H](C)CN1C(=O)c1cc2c(C(=O)C(=O)N(C)C)cn(C)c2cc1Cl [Talmapimod] (top concentration 10000 nM),0
8,C[C@@H](C(=O)O)c1ccc(-c2ccccc2)c(F)c1 [Tarenflurbil] (top concentration 10000 nM),-0.16
9,CNC(=O)c1cc(COc2nnc(Nc3ccc(Cl)cc3)c3ccoc23)ccn1 [Telatinib] (top concentration 10000 nM),0.9
10,O=c1sn(-c2cccc3ccccc23)c(=O)n1Cc1ccccc1 [Tideglusib] (top concentration 3000 nM),-0.3
11,COc1cc2nccc(Oc3ccc(NC(=O)Nc4cc(C)on4)c(Cl)c3)c2cc1OC [Tivozanib] (top concentration 10000 nM),9.06
12,Cc1cc(Nc2cc(N3CCN(C)CC3)nc(Sc3ccc(NC(=O)C4CC4)cc3)n2)n[nH]1 [Tozasertib] (top concentration 10000 nM),19.1
13,CC1=C(/C=C/C(C)=C/C=C/C(C)=C/C(=O)O)C(C)(C)CCC1 [Tretinoin] (top concentration 10000 nM),0.4
14,COC(=O)c1ccc2c(c1)[nH]c1ncnc(NCCCN3CCCCC3)c12 [UM729] (top concentration 10000 nM),2.84
15,COc1cc2c(NC3CCN(C(C)C)CC3)nc(N3CCC(F)(F)CC3)nc2cc1OCCCN1CCCC1 [UNC0642] (top concentration 10000 nM),-0.74
16,O=C(c1ccc(C(=O)N2CCC(N3CCCC3)CC2)c(Nc2ccccc2)c1)N1CCC(N2CCCC2)CC1 [UNC1215] (top concentration 10000 nM),0
17,CCCC(CCC)C(=O)O [Valproic_acid] (top concentration 1000000 nM),0
18,Clc1ccc(Nc2nnc(Cc3ccncc3)c3ccccc23)cc1 [Vatalanib] (top concentration 10000 nM),0
19,CCCS(=O)(=O)Nc1ccc(F)c(C(=O)c2c[nH]c3ncc(-c4ccc(Cl)cc4)cc23)c1F [Vemurafenib] (top concentration 10000 nM),6.56

# Test system: MHH-CALL-3
# Experiment: as above
# Conditions: 72 h
row,Structure (SMILES),selective drug sensitivity score
1,NCCNc1ccc(NCCN)c2c1C(=O)c1ccncc1C2=O [Pixantrone] (top concentration 10000 nM),-2.76
2,c1cc(CN2CCCNCCNCCCNCC2)ccc1CN1CCCNCCNCCCNCC1 [Plerixafor] (top concentration 10000 nM),0
3,O=C(c1ccc(OCCN2CCCCC2)cc1)c1c(-c2ccc(O)cc2)sc2cc(O)ccc12 [Raloxifene] (top concentration 10000 nM),-2.28
4,CN(C)C(=O)c1cc2cnc(Nc3ccc(N4CCNCC4)cn3)nc2n1C1CCCC1 [Ribociclib] (top concentration 10000 nM),3.18
5,CN1CCN(CCOc2cc(OC3CCOCC3)c3c(Nc4c(Cl)ccc5c4OCO5)ncnc3c2)CC1 [Saracatinib] (top concentration 10000 nM),0.08
6,C=CC(=O)Nc1cccc(Nc2nc(Nc3ccc(OCCOC)cc3)ncc2F)c1 [Spebrutinib] (top concentration 1000 nM),2.34
7,C[C@@H]1CN(Cc2ccc(F)cc2)[C@@H](C)CN1C(=O)c1cc2c(C(=O)C(=O)N(C)C)cn(C)c2cc1Cl [Talmapimod] (top concentration 10000 nM),0
8,C[C@@H](C(=O)O)c1ccc(-c2ccccc2)c(F)c1 [Tarenflurbil] (top concentration 10000 nM),-0.16
9,CNC(=O)c1cc(COc2nnc(Nc3ccc(Cl)cc3)c3ccoc23)ccn1 [Telatinib] (top concentration 10000 nM),0
10,O=c1sn(-c2cccc3ccccc23)c(=O)n1Cc1ccccc1 [Tideglusib] (top concentration 3000 nM),-0.3
11,COc1cc2nccc(Oc3ccc(NC(=O)Nc4cc(C)on4)c(Cl)c3)c2cc1OC [Tivozanib] (top concentration 10000 nM),-3.64
12,Cc1cc(Nc2cc(N3CCN(C)CC3)nc(Sc3ccc(NC(=O)C4CC4)cc3)n2)n[nH]1 [Tozasertib] (top concentration 10000 nM),9.66
13,CC1=C(/C=C/C(C)=C/C=C/C(C)=C/C(=O)O)C(C)(C)CCC1 [Tretinoin] (top concentration 10000 nM),-1.2
14,COC(=O)c1ccc2c(c1)[nH]c1ncnc(NCCCN3CCCCC3)c12 [UM729] (top concentration 10000 nM),0.54
15,COc1cc2c(NC3CCN(C(C)C)CC3)nc(N3CCC(F)(F)CC3)nc2cc1OCCCN1CCCC1 [UNC0642] (top concentration 10000 nM),-1.64
16,O=C(c1ccc(C(=O)N2CCC(N3CCCC3)CC2)c(Nc2ccccc2)c1)N1CCC(N2CCCC2)CC1 [UNC1215] (top concentration 10000 nM),0
17,CCCC(CCC)C(=O)O [Valproic_acid] (top concentration 1000000 nM),0
18,Clc1ccc(Nc2nnc(Cc3ccncc3)c3ccccc23)cc1 [Vatalanib] (top concentration 10000 nM),0
19,CCCS(=O)(=O)Nc1ccc(F)c(C(=O)c2c[nH]c3ncc(-c4ccc(Cl)cc4)cc23)c1F [Vemurafenib] (top concentration 10000 nM),-1.14
